Results taken from the supplement of paper PMC10307832.

What was measured:
Experiment in all cases: relative viability (nuclei count vs DMSO), 5 days (fraction); higher = more cells survive
CAL-12T = tested on: CAL-12T
Summary of the method: (§1)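 The day after seeding in 1536-well plates, lung cancer cell lines were treated by pin tool with a single drug, or with a fixed anchor-drug dose together with five library-drug doses (not always all listed) in √10 steps. After 5 days, a combined fix-and-stain solution (final 0.05% Triton X-100, 1% formaldehyde, 1 ug/ml Hoechst) was added. Nuclei counted on 4× images gave relative viability as treated counts over vehicle counts, reported as the median of duplicate plates.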

EKVX = tested on: EKVX
Summary of the method: as §1

H3255 = tested on: H3255
Summary of the method: as §1

HCC-15 = tested on: HCC-15
Summary of the method: as §1

HCC-827 = tested on: HCC-827
Summary of the method: as §1

LCLC-97TM1 = tested on: LCLC-97TM1
Summary of the method: as §1

LK-2 = tested on: LK-2
Summary of the method: as §1

NCI-H1355 = tested on: NCI-H1355
Summary of the method: as §1

NCI-H1563 = tested on: NCI-H1563
Summary of the method: as §1

NCI-H1650 = tested on: NCI-H1650
Summary of the method: as §1

NCI-H1734 = tested on: NCI-H1734
Summary of the method: as §1

NCI-H1755 = tested on: NCI-H1755
Summary of the method: as §1

NCI-H1975 = tested on: NCI-H1975
Summary of the method: as §1

NCI-H2228 = tested on: NCI-H2228
Summary of the method: as §1

NCI-H2342 = tested on: NCI-H2342
Summary of the method: as §1

NCI-H2405 = tested on: NCI-H2405
Summary of the method: as §1

NCI-H322M = tested on: NCI-H322M
Summary of the method: as §1

NCI-H520 = tested on: NCI-H520
Summary of the method: as §1

NCI-H661 = tested on: NCI-H661
Summary of the method: as §1

PC-14 = tested on: PC-14
Summary of the method: as §1

PC-3 [JPC-3] = tested on: PC-3 [JPC-3]
Summary of the method: as §1

RERF-LC-KJ = tested on: RERF-LC-KJ
Summary of the method: as §1

In the case of `COc1nc(C)cnc1NS(=O)(=O)c1cccnc1-c1ccc(-c2nnco2)cc1` [Zibotentan] + COc1cc2c(Oc3ccc(NC(=O)C4(C(=O)Nc5ccc(F)cc5)CC4)cc3F)ccnc2cc1OCCCN1CCOCC1 [Foretinib] (partner 0.25 µM), the relative viability (CAL-12T; first compound 0.08 µM) is reported as 1.21, the relative viability (CAL-12T; first compound 0.253 µM) is reported as 0.923 and the relative viability (CAL-12T; first compound 0.8 µM) is reported as 1.13. The relative viability (CAL-12T; first compound 2.53 µM) was 1.12, the relative viability (EKVX; first compound 0.08 µM) was 0.892 and the relative viability (EKVX; first compound 0.253 µM) was 0.762. The relative viability (EKVX; first compound 0.8 µM) was 1.11, the relative viability (EKVX; first compound 2.53 µM) was 0.875 and the relative viability (H3255; first compound 0.08 µM) was 0.966. For the same compound, the relative viability (H3255; first compound 0.253 µM) was 0.802, the relative viability (H3255; first compound 0.8 µM) was 0.945 and the relative viability (H3255; first compound 2.53 µM) was 0.987. The relative viability (HCC-15; first compound 0.08 µM) was 1.05, the relative viability (HCC-15; first compound 0.8 µM) was 1.03 and the relative viability (HCC-15; first compound 2.53 µM) was 1.05. The relative viability (HCC-827; first compound 0.08 µM) was 1.06, the relative viability (HCC-827; first compound 0.253 µM) was 1.01 and the relative viability (HCC-827; first compound 0.8 µM) was 1.11. It also gave a relative viability (HCC-827; first compound 2.53 µM) of 1.09, a relative viability (LCLC-97TM1; first compound 0.08 µM) of 1.01 and a relative viability (LCLC-97TM1; first compound 0.253 µM) of 0.891. For the same compound, the relative viability (LCLC-97TM1; first compound 0.8 µM) was 1, the relative viability (LCLC-97TM1; first compound 2.53 µM) was 0.926 and the relative viability (LK-2; first compound 0.08 µM) was 1.37. For the same compound, the relative viability (LK-2; first compound 0.253 µM) was 1.31, the relative viability (LK-2; first compound 0.8 µM) was 0.895 and the relative viability (LK-2; first compound 2.53 µM) was 1.17. The relative viability (NCI-H1355; first compound 0.08 µM) was 0.988, the relative viability (NCI-H1355; first compound 0.253 µM) was 1.02 and the relative viability (NCI-H1355; first compound 0.8 µM) was 0.955. It also gave a relative viability (NCI-H1355; first compound 2.53 µM) of 0.927, a relative viability (NCI-H1563; first compound 0.08 µM) of 0.985 and a relative viability (NCI-H1563; first compound 0.8 µM) of 1.02. It also gave a relative viability (NCI-H1563; first compound 2.53 µM) of 0.979, a relative viability (NCI-H1650; first compound 0.08 µM) of 1.04 and a relative viability (NCI-H1650; first compound 0.8 µM) of 1.29. The relative viability (NCI-H1650; first compound 2.53 µM) was 1.28, the relative viability (NCI-H1734; first compound 0.08 µM) was 0.875 and the relative viability (NCI-H1734; first compound 0.253 µM) was 0.773. The relative viability (NCI-H1734; first compound 0.8 µM) was 0.883, the relative viability (NCI-H1734; first compound 2.53 µM) was 0.812 and the relative viability (NCI-H1755; first compound 0.08 µM) was 0.943. For the same compound, the relative viability (NCI-H1755; first compound 0.253 µM) was 0.897, the relative viability (NCI-H1755; first compound 0.8 µM) was 0.897 and the relative viability (NCI-H1755; first compound 2.53 µM) was 0.929. The relative viability (NCI-H1975; first compound 0.08 µM) was 0.98, the relative viability (NCI-H1975; first compound 0.253 µM) was 0.849 and the relative viability (NCI-H1975; first compound 0.8 µM) was 0.824. It also gave a relative viability (NCI-H1975; first compound 2.53 µM) of 0.856, a relative viability (NCI-H2228; first compound 0.08 µM) of 0.714 and a relative viability (NCI-H2228; first compound 0.253 µM) of 0.819. For the same compound, the relative viability (NCI-H2228; first compound 0.8 µM) was 0.889, the relative viability (NCI-H2228; first compound 2.53 µM) was 0.801 and the relative viability (NCI-H2342; first compound 0.08 µM) was 1.08. It also gave a relative viability (NCI-H2342; first compound 0.253 µM) of 0.954, a relative viability (NCI-H2342; first compound 0.8 µM) of 1.03 and a relative viability (NCI-H2342; first compound 2.53 µM) of 1.13. The relative viability (NCI-H2405; first compound 0.08 µM) was 1.1, the relative viability (NCI-H2405; first compound 0.253 µM) was 1.02 and the relative viability (NCI-H2405; first compound 0.8 µM) was 1.04. The relative viability (NCI-H2405; first compound 2.53 µM) was 1.05, the relative viability (NCI-H322M; first compound 0.08 µM) was 1.03 and the relative viability (NCI-H322M; first compound 0.253 µM) was 0.782. It also gave a relative viability (NCI-H322M; first compound 0.8 µM) of 0.98, a relative viability (NCI-H322M; first compound 2.53 µM) of 1.02 and a relative viability (NCI-H520; first compound 0.08 µM) of 0.811. The relative viability (NCI-H520; first compound 0.253 µM) was 0.738, the relative viability (NCI-H520; first compound 0.8 µM) was 0.586 and the relative viability (NCI-H520; first compound 2.53 µM) was 0.742. The relative viability (NCI-H661; first compound 0.08 µM) was 1.01, the relative viability (NCI-H661; first compound 0.253 µM) was 0.969 and the relative viability (NCI-H661; first compound 0.8 µM) was 0.995. It also gave a relative viability (NCI-H661; first compound 2.53 µM) of 1.01, a relative viability (PC-14; first compound 0.08 µM) of 1.03 and a relative viability (PC-14; first compound 0.253 µM) of 0.897. For the same compound, the relative viability (PC-14; first compound 0.8 µM) was 0.924, the relative viability (PC-14; first compound 2.53 µM) was 1 and the relative viability (PC-3 [JPC-3]; first compound 0.08 µM) was 1.05. The relative viability (PC-3 [JPC-3]; first compound 0.253 µM) was 1.05, the relative viability (PC-3 [JPC-3]; first compound 0.8 µM) was 1.03 and the relative viability (PC-3 [JPC-3]; first compound 2.53 µM) was 0.973. The relative viability (RERF-LC-KJ; first compound 0.08 µM) was 0.836, the relative viability (RERF-LC-KJ; first compound 0.253 µM) was 0.885 and the relative viability (RERF-LC-KJ; first compound 0.8 µM) was 0.809. The relative viability (RERF-LC-KJ; first compound 2.53 µM) was 0.849.
